Laboratory results reported in US10544100B2, “Autophagy inhibitors” (priority 2011, dated 2020).

Key:
lysosome in U2OS cells = experiment: Inhibitory lysosomal mechanism of action (LysoTracker Red and LAMP1 staining); assay type: cell-based; conditions: for LAMP1 staining / LysoTracker Red staining: at 304 for 3 hours; for LysoTracker Red staining: LysoTracker Red for the final hour; for intensity of LysoTracker Red staining (image analysis, line scan): indicating an increase in pH
Experimental: To determine deacidification of the lysosome, cells were incubated with LysoTracker Red, a dye that localizes to the lysosome based on the low acidity of the compartment. If the lysosome is no longer acidic, there is a loss in the amount of LysoTracker Red staining. Lysosomal inhibition was further determined by immunofluorescence of lysosome-associated membrane protein-1 (LAMP1). If the lysosome is inhibited, lysosomal turnover should decrease and an increase in the amount of LAMP1 staining would be apparent. U2OS cells were treated with Example 7 or Example 26 at […] for 3 hours, supplementing LysoTracker Red for the final hour.
Using image analysis software, the mean intensities of both the LAMP1 and LysoTracker Red staining were measured and represent altered intensity level between treatments on intensity plots. Individual points were measured using a line scan on the image analysis software, which measures the intensity across the path of a line at any given point. Not only does the presence of LAMP1 positive membranes increases, but the intensity in LAMP1 staining also increases with Example 7 and Example 26 treatment. The inverse relationship in intensity holds true for LysoTracker Red staining.

[1] = tested on: Tumor cell lines (H292, HCT116, A375, HCC1569, A498, N87, UACC1093, and UACC647); experiment: Single agent tumor cell viability (ATP luminescence), 72 hours; assay type: cell-based; conditions: in the cell lines tested (FIGS. 1A, 1B, and C)
Experimental: (§1) Tumor cell lines (H292, HCT116, A375, HCC1569, A498, N87, UACC1093, and UACC647) were cultured in RPMI 1640 supplemented with 5% fetal bovine serum and housed in a 5% CO2 Incubator at 37° C.
(§2) For single agent IC50 determination, cells were plated on a 96 well microplate and allowed 24 hours to adhere. Drugs were administered to the drug plate by the following: compound stock solutions (10 mM) were added to a drug plate where a 1:10 dilution was performed. Following the dilutions, 2 μl of test compound was transferred to the corresponding wells in the cell-containing 96-well plate with 198 μl of growth media. The compounds were tested over a range of 0.1 pM-100 μM for 72 hours. Following 72 hours of continuous exposure cell viability was determined by measuring the ATP activity using a commercially available cell viability assay kit. Luminescence intensity was used to relative drug activity compared to control wells and used to graphically determine the IC50.

[2] = tested on: A375 Human melanoma tumor cells; experiment: Human tumor xenograft study; assay type: in vivo; conditions: A375 xenograft in female mice, oral, daily for 21 days; after 25 days
Experimental: Female mice were inoculated subcutaneously in the right flank with 0.1 ml of a 50% RPMI/50% Matrigel™ (BD Biosciences, Bedford, Mass.) mixture containing a suspension of A375 Human melanoma tumor cells (approximately 5×10^6 cells/mouse).
When tumor reached approximately 130 mg, mice were randomized into treatment groups. Body weights were recorded when the mice were randomized and were taken twice per week (on Study Days 3 and 7 for each cycle) thereafter in conjunction with tumor measurements. Treatment began on the day of randomization. Example 10 was delivered orally in a vehicle consisting of 5% DMA, 10% propylene glycol, 20% PEG 400, and 65% sterile water. Example 10 was administered daily for 21 days.

[3] = tested on: PLX-4032 resistant melanoma cell lines UACC1093 and UACC647; experiment: Combination interaction tumor cell viability (ATP luminescence), 72 hours; assay type: cell-based
Experimental: as §1
as §2, with “combination interaction experiments,” for “single agent IC50 determination,”, “(20 mM) or combination agent stock solutions (20” for “(10”, “each VT-062 and standard agent” for “test compound”, “196” for “198”, “compound and combination agent was concurrently” for “compounds were”, “IC50 of combination.” for “IC50.”

Q: How did the “intensity in LAMP1 staining (image analysis, line scan)” value (lysosome in U2OS cells) turn out when COc1ccc2nc3cc(Cl)ccc3c(NCCCCN3CCN(C)CC3)c2c1 [Example 7, 6-Chloro-2-methoxy-N-(4-(4-methylpiperazin-1-yl)butyl)acridin-9-amine] was run?
A: The value was “increases”.

Q: What about the LAMP1 staining (lysosome in U2OS cells) of the same compound?
A: Its LAMP1 staining is “substantial increases in LAMP1 staining”.

Q: And the “LysoTracker Red staining” value (lysosome in U2OS cells)?
A: Its value is “essentially ablated LysoTracker Red staining”.

Q: And the “intensity of LysoTracker Red staining (image analysis, line scan)” value (lysosome in U2OS cells)?
A: Its value is “less intense LysoTracker Red staining”.

Q: For CCN1CCC(Nc2c3c(nc4cc(Cl)ccc24)CCCC3)CC1 [Example 26, 6-Chloro-N-(1-ethylpiperidin-4-yl)-1,2,3,4-tetrahydroacridin-9-amine], which “intensity in LAMP1 staining (image analysis, line scan)” value (lysosome in U2OS cells) is on record?
A: The value was “increases”.

Q: What about the LAMP1 staining (lysosome in U2OS cells) of the same compound?
A: Its LAMP1 staining is “substantial increases in LAMP1 staining”.

Q: And the “LysoTracker Red staining” value (lysosome in U2OS cells)?
A: The value was “essentially ablated LysoTracker Red staining”.

Q: What about the “intensity of LysoTracker Red staining (image analysis, line scan)” value (lysosome in U2OS cells) of the same compound?
A: Its value is “less intense LysoTracker Red staining”.

Q: What does the source list for COc1ccc2nc3cc(Cl)ccc3c(NCCCCN(C)CC3CC3)c2c1 [Example 10, N^1-(6-Chloro-2-methoxyacridin-9-yl)-N^4-(cyclopropylmethyl)-N^4-methylbutane-1,4-diamine]?
A: tumor cell growth inhibition [1]: more than 75%; tumor growth inhibition (tumor weight) [2]: greater than 50%; increase in tumor growth inhibition in combination than Example 10 alone ([3]; in combination with PLX-4032, UACC1093 and UACC647 (FIGS. 4A and 4C)): 2.6-3.25%; increase in tumor growth inhibition in combination than Example 10 alone ([3]; in combination with Temozelomide, UACC1093 and UACC647 (FIGS. 4B and 4D)): 7-30%
